Molecules are shown by their SMILES. Entries after “also recorded” stand apart in the source; their conditions may differ. Read-outs that look alike come from different tables or passages of the source.

Data on 13 compounds can be found in patent US20070123537A1, “Quinazoline derivatives for the treatment of herpesviral infections” (GPC Biotech AG, priority 2003, published 2007).

One data set has as its system clinical HCMV isolate R5. The experiment in a line: Plaque reduction assay, clinical isolate R5. Particulars: GCV sensitive and CDV sensitive isolate; read-out: IC 50, clinical isolate R5. Type of data set: cell-based, Human Cytomegalovirus (HCMV). On the procedure: (§1) HCMV reference strain AD 169 was used at an MOI (multiplicity of infection) of 0.004 for the infection of HFFs in 12 well plates as described in FIG. 2. After virus adsorption, the infected cell layers were overlayed with fresh medium containing the compound concentration as indicated in FIG. 2 and 0.3% agarose. After eight days postinfection, a staining of virus plaques was performed by the use of 1% crystal violet. Quantification was achieved by microscopic counting in quadruplicate (infection in duplicate, counting in duplicate).
(§2) Furthermore, clinical isolates of HCMV like R5, R3 and R2 were used for the infection of HFFs in a plaque reduction assay under the conditions described above. Parallel experiments on phenotype characterization , gene sequencing and UL 97-in-cell-activity assay (GCV phosphorylation) with cloned UL 97 were performed (Marschall, M., et al., J. Gen Virol. 2001, 82, 1439-1450).
(§3) Three clinical HCMV strains were investigated on replication in the presence of the selected quinazoline derivatives 3,4-Dichloro-phenyl)-quinazolin-4-yl-amine (compound 37), (3,4-Dichloro-phenyl)-(6-methyl-quinazolin-4-yl)-amine (compound 49) and (4-Bromo-phenyl)-quinazolin-4-yl-amine (compound 98).

The next data set concerns HCMV mutant AD169deIUL97. The experiment in a line: Plaque reduction assay with UL97-deleted HCMV mutant. It counts as cell-based, Human Cytomegalovirus (HCMV). The note with it: 50 nM NGIC-I, 10 μM compound 37 or 2 μM CDV. The method, then:
FIG. 3: Replication of UL97-deleted HCMV in the presence of pUL97 inhibitors. Plaque assays were performed with HCMV mutant AD169deIUL97, carrying a deletion in the UL97 gene, in the presence of 0.1% DMSO (no inhib.), 50 nM NGIC-I, 10 μM compound 37 or 2 μM CDV as indicated.
To confirm the conclusion that pUL97 is the target for the antiviral activity of quinazolines, we performed an experiment with an UL97-deleted mutant of HCMV (AD169deIUL97) (Prichard, M. N., Gao, N., Jairath, S., Mulamba, G., Krosky, P., Coen, D. M., Parker, B. O., and Pari, G. S., J. Virol. […], 73, 5663).
(Plaque reduction counts the foci of infection that form in a cell layer.)

In another data set the test system is clinical HCMV isolate R3. Briefly: Plaque reduction assay, clinical isolate R3. Particulars: partially GCV resistant, CDV sensitive isolate; read-out: IC 50, clinical isolate R3. It counts as cell-based, Human Cytomegalovirus (HCMV). On the procedure:
as §1, §2, §3

In another data set the test system is clinical HCMV strain R2. Briefly: Plaque reduction assay, clinical isolate R2. The note with it: Human betaherpesvirus 5; GCV- and CDV-resistant strain; read-out: IC 50, clinical strain R2. Type of data set: cell-based, Human Cytomegalovirus (HCMV). On the procedure: as §1, §2, §3
A further data set addresses T1, viral kinase UL-97 (Human cytomegalovirus, UniProt P16788).
T1 construct: The UL-97 gene was cloned into a baculovirus vector in order to produce GST (glutathione S-transferase) fusion protein; GST; made in house; host or cells: Sf9 insect cells (baculovirus)
Briefly: UL97 Kinase-Assay on Immobilon Plate. It counts as biochemical. The method, then: UL97 Kinase-Assay on Immobilon Plate
The effect of quinazoline derivatives on the activity of the viral kinase UL-97 was tested. This kinase is derived from human cytomegalovirus (HCMV) (Marschall, M., et al., J. Gen Virol. 2001, 82,1439-1450.). The UL-97 gene was cloned into a baculovirus vector in order to produce GST (glutathione S-transferase) fusion protein. Insect cells (Sf9) were infected and GST-UL-97 purified via glutathione affinity columns according to standard procedures.
The UL-97 kinase reaction was performed as described (Marschall M. et aL, J. Gen. Virol. 2001, 82, 1439-1450). Briefly, 10 μl Assay buffer (3 μM ATP, 60 μg/ml myelin basic protein (MBP) as substrate), 1,0 μCi gamma[^33P]ATP and 10 μp, Basic buffer (20mM Tris-HCl 7.5, 500 μM MnCl2, 1 mM DTT (dithiothreitol)) were given to the test tube before adding various concentrations of the quinazoline derivatives. The reaction was started by adding 0.2 μl UL97 kinase, purified from infected Sf9-insect cells as described above. The total volume was adjusted with Basic buffer to a final volume of 30 μl. The reaction mix was incubated for 1 hr at 30° C. For negative control, 10 μl 0.1 M EDTA (ethylene diamine tetraacetate) was added to reaction mix before addition of UL-97 protein kinase. The reaction was stopped by addition of 10 μl 0.1 M EDTA.
Measuring Incorporation of Radioactivity
An Immobilon plate (Millipore) was rinsed with 50 μl methanol/well. Following addition of 100 μl 0.1 M EDTA, 20 μl of each kinase reaction mix was added to one well of the Immobilon plate. Each well was washed 4× with 250 μl 0.75% phosphoric acid and 1× with 50 μl methanol. After addition of 50 μl scintillation cocktail (Roth, Germany) per well incorporation of radioactivity was measured using a Betareader (Wallac) and enzymatic activity calculated.

The next data set deals with HCMV AD-169. The experiment in a line: HCMV infection of HFFs, reporter gene based antiviral assay. The note with it: for HCMV AD 169 Replication [%] of control at 3 μM: 3 μM compound, HFFs, reporter gene activity after seven days; for IC50: replication of HCMV strain AD 169 in HFF cells, read-out: HCMV AD 169 IC 50. Type of data set: cell-based, Human Cytomegalovirus (HCMV). On the procedure:
To examine the effect of the quinazoline derivatives on HCMV replication, HCMV infections were performed in a cellular system.
Human foreskin fibroblasts (HFFs) were grown to subconfluency in 12 well plates and infected with 0.25 tissue culture infectious doses of HCMV AD-169 carrying a reporter gene (HCMV based antiviral assay). Quinazoline derivatives (stocks in DMSO (Dimethylsulfoxide)) were diluted in culture medium to the concentrations indicated and added to the cells immediately after virus adsorption. The success of infection (reporter gene expressing cells) and the lack of cytotoxicity of the compound (confluent cell layer) was monitored by microscopy. After seven days, cell layers were harvested, lysed and subjected to the automated fluorometry measurement of reporter gene activity. Each panel refers to a determination in quadruplicate (infection in duplicate, lysate preparation and measurement in duplicate).
On the technique in general: A reporter such as luciferase makes a cellular process visible.

For another data set, the system named is HEK 293 cells. The experiment in a line: Toxicity assay in HEK 293 cells. Type of data set: cell-based. The method, then: Toxicity Assay: Toxicity of the quinazoline derivatives was measured by incubating HEK 293 cells with 10 μM of each derivative. The corresponding amount of DMSO served as control.
A further data set deals with T2, UL 97 (Human cytomegalovirus, UniProt P16788).
T2 construct: expressed in transfected cells; host or cells: HEK 293
The experiment in a line: UL 97 in-cell activity: protection of HEK 293 cells ectopically expressing UL 97 against toxic GCV. Type of data set: cell-based, human cytomegalovirus (HCMV). Particulars: HEK 293 cells expressing UL 97. On the procedure: as §2
Furthermore, (IC50)-values of HCMV replication was measured for some compounds in a cellular system. Some quinazoline derivatives protect HEK 293 cells ectopially expressing UL 97 against toxic concentrations of GCV (10 and 20 μM respectively).

In data set [1] the test system is HCMV reference strain AD 169. Briefly: Plaque reduction assay, HCMV AD 169 in HFFs. Particulars: Human betaherpesvirus 5, 192 h, read-out: IC50 in the plaque reduction assay. Type of data set: cell-based, Human Cytomegalovirus (HCMV). On the procedure: as §1
Setting [2] is: 3 μM ATP, MBP substrate, read-out: UL 97 IC 50.
[3] abbreviates: HCMV AD 169, HFFs, eight days postinfection.
Setting [4] is: Human betaherpesvirus 5, AD169, HFF.

T1 sequence (P16788 whole entry, the tested form may be a part): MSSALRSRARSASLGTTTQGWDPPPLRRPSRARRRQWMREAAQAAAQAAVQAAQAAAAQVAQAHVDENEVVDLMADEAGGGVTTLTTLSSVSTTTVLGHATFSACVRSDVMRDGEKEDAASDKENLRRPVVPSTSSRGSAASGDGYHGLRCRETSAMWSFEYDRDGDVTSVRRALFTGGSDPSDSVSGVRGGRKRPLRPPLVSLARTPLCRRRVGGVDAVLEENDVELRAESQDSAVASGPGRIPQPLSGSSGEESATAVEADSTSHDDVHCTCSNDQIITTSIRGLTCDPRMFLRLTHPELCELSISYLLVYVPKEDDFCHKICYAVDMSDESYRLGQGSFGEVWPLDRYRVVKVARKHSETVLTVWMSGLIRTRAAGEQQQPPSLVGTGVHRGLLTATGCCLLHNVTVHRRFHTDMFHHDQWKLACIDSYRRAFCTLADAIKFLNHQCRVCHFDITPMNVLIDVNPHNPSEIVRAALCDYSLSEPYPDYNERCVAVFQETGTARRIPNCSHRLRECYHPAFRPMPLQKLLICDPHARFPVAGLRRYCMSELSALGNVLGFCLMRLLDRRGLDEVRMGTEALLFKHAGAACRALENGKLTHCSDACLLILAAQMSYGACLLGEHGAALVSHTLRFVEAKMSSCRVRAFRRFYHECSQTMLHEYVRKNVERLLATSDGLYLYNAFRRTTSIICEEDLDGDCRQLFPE
T2 sequence (P16788 whole entry): as the sequence (P16788 whole entry, the tested form may be a part) above

Consider `Nc1ccn(C[C@@H](CO)OCP(=O)(O)O)c(=O)n1` [CDV, Cidofovir], for which the IC50 was 0.7 µM with clinical HCMV isolate R5, 0.35 µM with clinical HCMV isolate R3 and 4.2 µM in the data set on clinical HCMV strain R2. Moreover, the “effect on replication of AD169deIUL97 (plaque assay)” value in the data set with HCMV mutant AD169deIUL97 is “complete inhibition; also recorded: efficiently blocked”.

For the compound `COc1cc2ncnc(Nc3ccc(Br)cc3)c2cc1OC` [Compound 31, (4-Bromo-phenyl)-(6,7-dimethoxy-quinazolin-4-yl)-amine], the “inhibition of UL 97-kinase activity (in words)” value (“inhibition” below) against viral kinase UL-97 is “potent inhibitors”. At viral kinase UL-97 (setting [2]), the IC50 was found to be 1.2 µM. Moreover, in the data set on HCMV AD-169, the “HCMV AD 169 Replication [%] of control at 3 μM” value (shortened to “HCMV AD 169 Replication [%]”) is recorded as 60%.

As to `Clc1ccc(Nc2ncnc3ccccc23)cc1Cl` [Compound 37, (3,4-Dichloro-phenyl)-quinazolin-4-yl-amine], the “Viability [%] at 10 μM” value in the data set on HEK 293 cells amounted to 77%. Also, the results for the “UL 97 GCV [%] growth at conc. [μM]” value on UL 97 (at 10 μM) and on UL 97 (at 20 μM) were 80% and 50%, respectively. The IC50 was 2.5 to 5 µM in [1] (setting [3]), 0.04 µM at viral kinase UL-97 (setting [2]), 2 to 3 µM with HCMV AD-169 (setting [4]) and 3 µM in the data set on HCMV AD-169. In addition, the “inhibition” value against viral kinase UL-97 is on record as “potent inhibitors”. The “effect on replication of AD169deIUL97 (plaque assay)” value is recorded as “only little or no effect” in the data set on HCMV mutant AD169deIUL97 and “not” in the data set on HCMV mutant AD169deIUL97 (listed as compound 37). For the same compound, in the data set on HCMV AD-169, the “HCMV AD 169 Replication [%]” value was 45%.

As for `Cc1ccc2ncnc(Nc3ccc(Br)cc3)c2c1` [Compound 43, (4-Bromo-phenyl)-(6-methyl-quinazolin-4-yl)-amine], the “inhibition” value against viral kinase UL-97 was “potent inhibitors”. At viral kinase UL-97 (setting [2]), the IC50 was above 0.1 µM. Further, the “HCMV AD 169 Replication [%]” value in the data set with HCMV AD-169 worked out at 20%.

As for `Cc1ccc2ncnc(Nc3ccc(Cl)c(Cl)c3)c2c1` [Compound 49, (3,4-Dichloro-phenyl)-(6-methyl-quinazolin-4-yl)-amine], in the data set with HEK 293 cells, the “Viability [%] at 10 μM” value is reported as 78%. Also, at UL 97 (at 10 μM), the “UL 97 GCV [%] growth at conc. [μM]” value was found to be 80% at 10 μM. Besides, the IC50 in data set [1] is 2.5 to 5 µM; at viral kinase UL-97 (setting [2]), 0.02 µM; with HCMV AD-169 (setting [4]), 2 to 3 µM; in the data set with HCMV AD-169 it was 2.5 µM. The “inhibition” value at viral kinase UL-97 is reported as “potent inhibitors”. Also, the “HCMV AD 169 Replication [%]” value in the data set on HCMV AD-169 worked out at 20%.

As to `Fc1ccc2c(Nc3cccc(Cl)c3)ncnc2c1` [Compound 70, (3-Chloro-phenyl)-(7-fluoro-quinazolin-4-yl)-amine], the “inhibition” value against viral kinase UL-97 is “potent inhibitors”.

On to `Ic1ccc(Nc2ncnc3ccccc23)cc1` [Compound 72, (4-lodo-phenyl)-quinazolin-4-yl-amine], for which the “inhibition” value against viral kinase UL-97 is on record as “potent inhibitors”. At viral kinase UL-97 (setting [2]), the IC50 was determined as 0.2 µM.

`c1ccc(Nc2ncnc3ccccc23)cc1` [Compound 84, Phenyl-quinazolin-4-yl-amine] came in with an IC50 at viral kinase UL-97 of 0.3 µM.

As to `Clc1cccc(Nc2ncnc3ccccc23)c1` [Compound 87, (3-Chloro-phenyl)-quinazolin-4-yl-amine], on viral kinase UL-97, the “inhibition” value is on record as “potent inhibitors”. Besides, the IC50 at viral kinase UL-97 (setting [2]) turned out to be 0.7 µM.

Consider `Fc1ccc(Nc2ncnc3ccccc23)cc1` [Compound 88, (4-Fluoro-phenyl)-quinazolin-4-yl-amine], for which, at viral kinase UL-97, the “inhibition” value was “potent inhibitors”. Further, the IC50 on viral kinase UL-97 (setting [2]) is 0.2 µM.

Regarding `CCc1cccc(Nc2ncnc3ccc(C)cc23)c1` [Compound 89, (3-Ethyl-phenyl)-(6-methyl-quinazolin-4-yl)-amine], the “inhibition” value on viral kinase UL-97 was “potent inhibitors”.

Consider `Brc1ccc(Nc2ncnc3ccccc23)cc1` [Compound 98, (4-Bromo-phenyl)-quinazolin-4-yl-amine], for which, in the data set with HEK 293 cells, the “Viability [%] at 10 μM” value is listed as 75%. Also, the “UL 97 GCV [%] growth at conc. [μM]” value at UL 97 (at 10 μM) came to 80%; at UL 97 (at 20 μM), 60%. For the same compound, the IC50 in [1] (setting [3]) was 2.5 to 5 µM; at viral kinase UL-97 (setting [2]) it was 0.17 µM; in the data set on HCMV AD-169 (setting [4]), 2 to 3 µM; in the data set with HCMV AD-169, 2 µM. The “inhibition” value on viral kinase UL-97 was “potent inhibitors”. Further, in the data set with HCMV AD-169, the “HCMV AD 169 Replication [%]” value is given as 30%.

As to `Nc1nc(O)c2ncn(COC(CO)CO)c2n1` [ganciclovir], the IC50 is 4 to 6 µM in [1] (setting [3]); 4.1 µM in the data set with clinical HCMV isolate R5; 20 µM with clinical HCMV isolate R3; 34 µM in the data set with clinical HCMV strain R2; 3 to 4 µM with HCMV AD-169 (setting [4]).
